Test system: not listed separately
Experiment: Microsomal stability assay (intrinsic clearance), human liver microsomes
Assay type: in vitro ADME
Conditions: human in vitro microsomes, first value of Hum/Rat pair
Protocol: (§1) Microsomal Stability Testing—Assay Description
(§2) The microsomal stability assay measures the rate of disappearance of a test compound from an incubation containing human or animal liver microsomes and metabolic cofactors (typically NADPH). The assay is primarily used for ranking the relative CYP-mediated metabolism propensities of compounds within a chemical series and as a guide to selecting sufficiently stable compounds for pharmacokinetics and pharmacodynamics experiments. [In addition to CYPs, microsomally located enzymes which also make use of NADPH (such as […]) and those which require no cofactors (such as carboxylesterases) are active.]
(§3) Incubations are performed in 96-well deep-well plates with a final incubation volume of 600 μL. Incubations contain (finally) 1-2 μM test compound, 0.5 mg/mL liver microsomes (typically human, rat or mouse) and NADPH regenerating system. 50 μL aliquots are removed after 1, 3, 6, 9, 15, 25, 35 and 45 minutes and quenched in 150 μL acetonitrile containing internal standard. Samples are then cooled and centrifuged before analysis by LC-MS/MS.
(§4) Log peak area ratio (test compound peak area/internal standard peak area) is plotted against incubation time and a linear fit made to the data with emphasis upon the initial rate of compound disappearance. The slope of the fit is then used to calculate the intrinsic clearance: Clint(μL/min/mg)=−slope(min^−1)*1000/[protein concentration (mg/mL)]

In order of falling microsomal CLint:
1. O=S(=O)(c1ccc(OC(F)(F)F)cc1)N1CCN(c2nc(Cc3ccc(F)cc3)ns2)CC1 [reference compound]  46 µL/min/mg
2. Fc1ccc(Cc2nsc(N3CCN(Cc4ccc5c(c4)OCO5)CC3)n2)cc1 [reference compound]  39 µL/min/mg
3. Cc1ccc(-c2nsc(N3CCN(Cc4ccc5c(c4)OCO5)CC3)n2)cc1 [Example 2, 1-Benzo[1,3]dioxol-5-ylmethyl-4-(3-p-tolyl-[1,2,4]thiadiazol-5-yl)-piperazine]  19 µL/min/mg

Test system: not listed separately
Experiment: Microsomal stability assay (intrinsic clearance), rat liver microsomes
Assay type: in vitro ADME
Conditions: rat in vitro microsomes, second value of Hum/Rat pair
Protocol: as §1, §2, §3, §4

In order of falling microsomal CLint:
1. Fc1ccc(Cc2nsc(N3CCN(Cc4ccc5c(c4)OCO5)CC3)n2)cc1 [reference compound]  482 µL/min/mg
2. O=S(=O)(c1ccc(OC(F)(F)F)cc1)N1CCN(c2nc(Cc3ccc(F)cc3)ns2)CC1 [reference compound]  103 µL/min/mg
3. Cc1ccc(-c2nsc(N3CCN(Cc4ccc5c(c4)OCO5)CC3)n2)cc1 [Example 2, 1-Benzo[1,3]dioxol-5-ylmethyl-4-(3-p-tolyl-[1,2,4]thiadiazol-5-yl)-piperazine]  48 µL/min/mg

Test system: M17—3TAU(P301L) cells
Experiment: Neuroblastoma tauopathy model: inhibition of TAU-induced cytotoxicity (LDH)
Assay type: cell-based
Conditions: Homo sapiens, 168 h; inhibition of TAU-induced toxicity (LDH), 7 days differentiation with retinoic acid
How it was run: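 BE-M17 neuroblastoma cells stably expressing human TAU-P301L, differentiated with RA (2.5 μM in added medium) for 7 days at 37 °C with compounds at a range of concentrations. Cytotoxicity as supernatant LDH over total LDH (Cytotox 96); EC50 from dose-dependent inhibition curve.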

In order of falling EC50:
1. Cc1ccc(-c2nsc(N3CCN(Cc4ccc(Cl)cc4Cl)CC3)n2)cc1 [Example 3, 1-(2,4-Dichloro-benzyl)-4-(3-p-tolyl-[1,2,4]thiadiazol-5-yl)-piperazine]  987 nM
2. Cc1ccc(-c2nsc(N3CCN(Cc4ccc5c(c4)OCO5)CC3)n2)cc1 [Example 2, 1-Benzo[1,3]dioxol-5-ylmethyl-4-(3-p-tolyl-[1,2,4]thiadiazol-5-yl)-piperazine]  587 nM
3. N#Cc1ccc(-c2nsc(N3CCN(CCc4cccc(C(F)(F)F)c4)CC3)n2)cc1 [Example 143, 4-(5-{4-[2-(3-Trifluoromethyl-phenyl)-ethyl]-piperazin-1-yl}-[1,2,4]thiadiazol-3-yl)-benzonitrile]  143 nM
4. FC(F)(F)c1cccc(CCN2CCN(c3nc(-c4cc(Cl)ccn4)ns3)CC2)c1 [Example 159, 3-(4-chloropyridin-2-yl)-5-(4-(3-(trifluoromethyl)phenethyl)piperazin-1-yl)-1,2,4-thiadiazole]  119 nM
5. COc1cc(CCN2CCN(c3nc(-c4cc(Cl)ccn4)ns3)CC2)ccn1 [Example 127, 1-[3-(4-Chloro-pyridin-2-yl)-[1,2,4]thiadiazol-5-yl]-4-[2-(2-methoxy-pyridin-4-yl)-ethyl]-piperazine]  109 nM
6. Cc1ccccc1CN1CCN(c2nc(-c3ccc(Cl)cn3)ns2)CC1 [Example 129, 1-[3-(5-Chloro-pyridin-2-yl)-[1,2,4]thiadiazol-5-yl]-4-(2-methyl-benzyl)-piperazine]  92.3 nM
7. Cc1ccccc1CN1CCN(c2nc(-c3ccc(F)c(F)c3)ns2)CC1 [Example 107, 1-[3-(3,4-Difluoro-phenyl)-[1,2,4]thiadiazol-5-yl]-4-(2-methyl-benzyl)-piperazine]  72.2 nM
8. Cc1ccc(-c2nsc(N3CCN(CCc4ccc(F)c(F)c4)CC3)n2)cn1 [Example 148, 1-[2-(3,4-Difluoro-phenyl)-ethyl]-4-[3-(6-methyl-pyridin-3-yl)-[1,2,4]thiadiazol-5-yl]-piperazine]  67.5 nM
9. Fc1ccc(CCN2CCN(c3nc(-c4ccc(Cl)cn4)ns3)CC2)cc1F [Example 139, 1-[3-(5-Chloro-pyridin-2-yl)-[1,2,4]thiadiazol-5-yl]-4-[2-(3,4-difluoro-phenyl)-ethyl]-piperazine]  47.2 nM
10. COc1cccc(C(O)CN2CCN(c3nc(-c4ccc(Cl)cc4)ns3)CC2)c1 (stereo not shown) [Example 61, 2-{4-[3-(4-Chloro-phenyl)-[1,2,4]thiadiazol-5-yl]-piperazin-1-yl}-1-(3-methoxy-phenyl)-ethanol]  44.4 nM
11. FC(F)Oc1cccc(CCN2CCN(c3nc(-c4ccc(Cl)cc4)ns3)CC2)c1 [Example 69, 1-[3-(4-Chloro-phenyl)-[1,2,4]thiadiazol-5-yl]-4-[2-(3-difluoromethoxy-phenyl)-ethyl]-piperazine]  43.7 nM
12. Cc1ccccc1CN1CCN(c2nc(-c3cccc(Cl)c3)ns2)CC1 [Example 92, 1-[3-(3-Chloro-phenyl)-[1,2,4]thiadiazol-5-yl]-4-(2-methyl-benzyl)-piperazine]  43.3 nM
13. Fc1ccc(CCN2CCN(c3nc(-c4cc(Cl)ccn4)ns3)CC2)cc1 [Example 122, 1-[3-(4-Chloro-pyridin-2-yl)-[1,2,4]thiadiazol-5-yl]-4-[2-(4-fluoro-phenyl)-ethyl]-piperazine]  42.5 nM
14. Clc1ccc(-c2nsc(N3CCN(CCC4CCCCC4)CC3)n2)cc1 [Example 161, 3-(4-chlorophenyl)-5-(4-(2-cyclohexylethyl)piperazin-1-yl)-1,2,4-thiadiazole]  39.6 nM
15. COc1cccc(CCN2CCN(c3nc(-c4cc(Cl)cc(Cl)c4)ns3)CC2)c1 [Example 31, 1-[3-(3,5-Dichloro-phenyl)-[1,2,4]thiadiazol-5-yl]-4-[2-(3-methoxy-phenyl)-ethyl]-piperazine]  21.1 nM
16. N#Cc1cccc(-c2nsc(N3CCN(CCc4ccc(Cl)cc4)CC3)n2)c1 [Example 113, 3-(5-{4-[2-(4-Chloro-phenyl)-ethyl]piperazin-1-yl}-[1,2,4]thiadiazol-3-yl)-benzonitrile]  17.1 nM
17. COc1ccc(C(O)CN2CCN(c3nc(-c4ccc(Cl)cc4)ns3)CC2)cc1 (stereo not shown) [Example 54, 2-{4-[3-(4-Chloro-phenyl)-[1,2,4]thiadiazol-5-yl]-piperazin-1-yl}-1-(4-methoxy-phenyl)-ethanol]  16.1 nM
18. COc1cc(CCN2CCN(c3nc(-c4ccc(C#N)cc4)ns3)CC2)ccn1 [Example 116, 4-(5-{4-[2-(2-Methoxy-pyridin-4-yl)-ethyl]-piperazin-1-yl}-[1,2,4]thiadiazol-3-yl)-benzonitrile]  14.1 nM
19. Fc1cccc(CCN2CCN(c3nc(-c4ccc(Cl)cc4)ns3)CC2)c1 [Example 21, 1-[3-(4-Chloro-phenyl)-[1,2,4]thiadiazol-5-yl]-4-[2-(3-fluoro-phenyl)-ethyl]-piperazine]  9.5 nM
20. Fc1cccc(-c2nsc(N3CCN(CCc4ccccc4)CC3)n2)c1 [Example 83, 1-[3-(3-Fluoro-phenyl)-[1,2,4]thiadiazol-5-yl]-4-phenethyl-piperazine]  9.5 nM
21. Fc1ccc(-c2nsc(N3CCN(CCC4CCCCC4)CC3)n2)cc1F [Example 153, 1-(2-Cyclohexyl-ethyl)-4-[3-(3,4-difluoro-phenyl)-[1,2,4]thiadiazol-5-yl]-piperazine]  5.9 nM
22. COc1ccc(CCN2CCN(c3nc(-c4ccc(Cl)cc4F)ns3)CC2)cc1 [Example 56, 1-[3-(4-Chloro-2-fluoro-phenyl)-[1,2,4]thiadiazol-5-yl]-4-[2-(4-methoxy-phenyl)-ethyl]-piperazine]  5.5 nM
23. Cc1ccc(CCN2CCN(c3nc(-c4ccc(Cl)cc4)ns3)CC2)cc1 [Example 26, 1-[3-(4-Chloro-phenyl)-[1,2,4]thiadiazol-5-yl]-4-(2-p-tolyl-ethyl)-piperazine]  4.9 nM
24. Fc1ccc(CCN2CCN(c3nc(-c4cccc(Cl)c4)ns3)CC2)cc1F [Example 135, 1-[3-(3-Chloro-phenyl)-[1,2,4]thiadiazol-5-yl]-4-[2-(3,4-difluoro-phenyl)-ethyl]-piperazine]  4.5 nM
25. COc1ccc(CCN2CCN(c3nc(-c4cccc(F)c4)ns3)CC2)cn1 [Example 100, 1-[3-(3-Fluoro-phenyl)-[1,2,4]thiadiazol-5-yl]-4-[2-(6-methoxy-pyridin-3-yl)-ethyl]-piperazine]  4.3 nM
26. Fc1ccc(CCN2CCN(c3nc(-c4cccc(Cl)c4)ns3)CC2)cc1 [Example 85, 1-[3-(3-Chloro-phenyl)-[1,2,4]thiadiazol-5-yl]-4-[2-(4-fluoro-phenyl)-ethyl]-piperazine]  3.1 nM
27. COc1ccc(CCN2CCN(c3nc(-c4ccc(C)nc4)ns3)CC2)cc1 [Example 95, 1-[2-(4-Methoxy-phenyl)-ethyl]-4-[3-(6-methyl-pyridin-3-yl)-[1,2,4]thiadiazol-5-yl]-piperazine]  3.1 nM
28. N#Cc1cccc(-c2nsc(N3CCN(CCc4ccc(F)cc4)CC3)n2)c1 [Example 111, 3-(5-{4-[2-(4-Fluoro-phenyl)-ethyl]piperazin-1-yl}-[1,2,4]thiadiazol-3-yl)-benzonitrile]  3.1 nM
29. Cc1cccc(CCN2CCN(c3nc(-c4ccc(Cl)cc4)ns3)CC2)c1 [Example 23, 1-[3-(4-Chloro-phenyl)-[1,2,4]thiadiazol-5-yl]-4-(2-m-tolyl-ethyl)-piperazine]  1.9 nM
30. COc1cccc(CCN2CCN(c3nc(-c4ccc(F)cc4)ns3)CC2)c1 [Example 34, 1-[3-(4-Fluoro-phenyl)-[1,2,4]thiadiazol-5-yl]-4-[2-(3-methoxy-phenyl)-ethyl]-piperazine]  1.4 nM
31. COc1ccc(CCN2CCN(c3nc(-c4ccc(F)cc4OC)ns3)CC2)cc1 [Example 67, 1-[3-(4-Fluoro-2-methoxy-phenyl)-[1,2,4]thiadiazol-5-yl]-4-[2-(4-methoxy-phenyl)-ethyl]-piperazine]  1 nM
32. COc1ccc(CCN2CCN(c3nc(-c4cccc(Cl)c4)ns3)CC2)cn1 [Example 93, 1-[3-(3-Chloro-phenyl)-[1,2,4]thiadiazol-5-yl]-4-[2-(6-methoxy-pyridin-3-yl)-ethyl]-piperazine]  0.9 nM
33. COc1ccc(CCN2CCN(c3nc(-c4ccc(F)cc4)ns3)CC2)cc1 [Example 47, 1-[3-(4-Fluoro-phenyl)-[1,2,4]thiadiazol-5-yl]-4-[2-(4-methoxy-phenyl)-ethyl]-piperazine]  0.4 nM
34. COc1ccc(CCN2CCN(c3nc(-c4ccc(C(F)(F)F)nc4)ns3)CC2)cc1 [Example 42, 1-[2-(4-Methoxy-phenyl)-ethyl]-4-[3-(6-trifluoromethyl-pyridin-3-yl)-[1,2,4]thiadiazol-5-yl]-piperazine]  0.3 nM

Source: US9023852B2, “1, 2, 4-thiadiazol-5-ylpiperazine derivatives useful in the treatment of neurodegenerative diseases” (Remynd NV, priority 2011, dated 2015)
